How the values were obtained:
[1] = system: changes of the dp/dt max. after isoproterenol (left ventricular blood pressure); experiment: Antagonism of isoproterenol-induced change of left ventricular dp/dt max. in narcotised dogs (catheter tip manometer); format: in vivo; conditions: Canis lupus familiaris, iv, isoproterenol 0.5·10^-6 gram/kg i.v., cumulative doses of test substance
Procedure: Isoproterenol (0.5 ^. 10^-^6 gram/kg i.v.) was injected at intervals of 15 minutes before and after increasing doses of the test substance. The changes of the dp/dt max. after isoproterenol were determined before and after the intravenous administration of the test substance. These values were used to calculate the ED50. The doses quoted in each case are the cumulative doses of the test substance.

[2] = system: dp/dt (left ventricular blood pressure); experiment: Intrinsic (inotropic) action on the dp/dt; format: in vivo, dogs; conditions: number of - and + signs indicates strength of the effect
[3] = system: heart (inotropic intrinsic action); conditions: words, cited from earlier work

## CC(CC(O)c1cccnc1)NCC(O)COc1ccccc1Cl (stereo not drawn) [1-(3'-β-pyridyl-3'-hydroxy-1'-methyl-propylamino)-3-(o-chlorophenoxy)-propan-2-ol]
[1]
  ED50: 0.0082 mg/kg
[2]
  Intrinsic action on the dp/dt: 0

## CCOc1ccccc1OCC(O)CNC(C)CC(O)c1cccnc1 (single isomer, unassigned; (-)) [(-)-1-β-Pyridyl-3-[3-(o-ethoxyphenoxy)-2-hydroxy-propylamino]-butan-1-ol (laevo-rotatory)]
[1]
  ED50: 0.0026 mg/kg

## CCCCCOc1ccc(OCC(O)CNC(C)CC(O)c2cccnc2)cc1 (stereo not drawn) [1-(3'-β-pyridyl-3'-hydroxy-1'-methyl-propylamino)-3-(p-pentoxyphenoxy)-propan-2-ol]
[1]
  ED50: 0.0184 mg/kg
[2]
  Intrinsic action on the dp/dt: 0

## CC(=O)Nc1ccc(OCC(O)CNC(C)CC(O)c2cccnc2)cc1 (stereo not drawn) [1-(3'-β-pyridyl-3'-hydroxy-1'-methyl-propylamino)-3-(p-acetamino-phenoxy)-propan-2-ol]
[1]
  ED50: 0.0146 mg/kg

## CCCOc1ccc(OCC(O)CNC(C)CC(O)c2cccnc2)cc1 (stereo not drawn) [1-(3'-β-pyridyl-3'-hydroxy-1'-methyl-propylamino)-3-(p-propoxyphenoxy)-propan-2-ol]
[1]
  ED50: 0.0167 mg/kg

## COc1cccc(OCC(O)CNC(C)CC(O)c2cccnc2)c1 (stereo not drawn) [1-(3'-β-pyridyl-3'-hydroxy-1'-methyl-propylamino)-3-(m-methoxyphenoxy)-propan-2-ol]
[1]
  ED50: 0.012 mg/kg

## CC(CC(O)c1cccnc1)NCC(O)COc1ccccc1-c1ccccc1 (stereo not drawn) [1-(3'-β-Pyridyl-3'-hydroxy-1'-methyl-propylamino)-3-(o-phenylphenoxy)-propan-2-ol]
[2]
  Intrinsic action on the dp/dt: 0

## CCOc1ccc(OCC(O)CNC(C)CC(O)c2cccnc2)cc1 (single isomer, unassigned; (-)) [(-)-1-(3'-β-pyridyl-3'-hydroxy-1'-methyl-propylamino)-3-(p-ethoxyphenoxy)-propan-2-ol, laevo-rotatory]
[2]
  Intrinsic action on the dp/dt: 0

## CCOc1ccccc1OCC(O)CNC(C)CC(O)c1cccnc1 (stereo not drawn) [1-(3'-β-Pyridyl-3'-hydroxy-1'-methyl-propylamino)-3-(o-ethoxyphenoxy)-propan-2-ol]
[1]
  ED50: 0.0151 mg/kg
[2]
  Intrinsic action on the dp/dt: 0

## C=CCc1ccccc1OCC(O)CNC(C)CC(O)c1cccnc1 (stereo not drawn) [1-(3'-β-pyridyl-3'-hydroxy-1'-methyl-propylamino)-3-(o-allylphenoxy)-propan-2-ol]
[1]
  ED50: 0.0178 mg/kg

## CC(CC(O)c1cccnc1)NCC(O)COc1ccc(Cl)cc1 (stereo not drawn) [1-(3'-β-pyridyl-3'-hydroxy-1'-methyl-propylamino)-3-(p-chlorophenoxy)-propan-2-ol]
[1]
  ED50: 0.03 mg/kg

## Cc1cccc(OCC(O)CNC(C)CC(O)c2cccnc2)c1 (stereo not drawn) [1-(3'-β-pyridyl-3'-hydroxy-1'-methyl-propylamino)-3-(m-methylphenoxy)-propan-2-ol]
[1]
  ED50: 0.0175 mg/kg

## CCOc1ccc(OCC(O)CNC(C)CC(O)c2cccnc2)cc1 (stereo not drawn) [1-(3'-β-pyridyl-3'-hydroxy-1'-methyl-propylamino)-3-(p-ethoxyphenoxy)-propan-2-ol]
[1]
  ED50: 0.0448 mg/kg

## C=CCOc1ccccc1OCC(O)CNC(C)CC(O)c1cccnc1 (stereo not drawn) [1-(3'-β-pyridyl-3'-hydroxy-1'-methyl-propylamino)-3-(o-allyloxyphenoxy)-propan-2-ol]
[1]
  ED50: 0.008 mg/kg

## CC(C)NCC(O)COc1cccc2ccccc12 (stereo not drawn) [Propranolol]
[1]
  ED50: 0.0561 mg/kg
[3]
  inotropic intrinsic action (clinical practice): strongly negative-inotropic intrinsic action
[3]; clinical practice
  cardiac insufficiency risk: capable of causing an acute cardiac insufficiency or liable to intensify an already existing cardiac insufficiency

## COc1ccccc1OCC(O)CNC(C)CC(O)c1cccnc1 (stereo not drawn) [1-(3'-β-pyridyl-3'-hydroxy-1'-methyl-propylamino)-3-(o-methoxyphenoxy)-propan-2-ol]
[1]
  ED50: 0.006 mg/kg

Source: US4018778A, “Derivatives of 1-phenoxy-3-amino-propane-2-ol and process for their production” (Cassella Farbwerke Mainkur Aktiengesellschaft, priority 1972, dated 1977)
